This note sets out measurements from patent US20230049619A1, “SIGMA-1 RECEPTOR LIGANDS AND USES THEREOF” (UNIVERSITE DE STRASBOURG, priority 2019, published 2023).

Where a name gives a salt, the structure may show the parent alone.

T1 sequence (Q99720 whole entry): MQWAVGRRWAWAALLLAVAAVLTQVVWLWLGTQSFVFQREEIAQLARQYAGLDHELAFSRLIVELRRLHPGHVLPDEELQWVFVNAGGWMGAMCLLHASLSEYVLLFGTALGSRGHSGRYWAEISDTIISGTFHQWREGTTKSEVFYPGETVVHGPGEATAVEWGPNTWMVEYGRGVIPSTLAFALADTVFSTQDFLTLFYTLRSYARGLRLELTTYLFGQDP

One assay has as its target T1, sigma-1 receptor (Homo sapiens, UniProt Q99720).
T1 construct: incubing Jurkat cell membranes ([…] protein per tube) with [^3H](+)-pentazocine; endogenous in cells; host or cells: Jurkat cell membranes
The assay is described as follows: sigma-1 receptor binding assay ([3H](+)-pentazocine displacement, Jurkat cell membranes). The settings on record: tested compound 10 nM, [3H](+)-pentazocine 15 nM, 37° C., 2 hours. As for the experimental part: The sigma-1 receptor binding assays were performed according to Ganapathy et al. (J Pharmacol Exp Ther 28:251-60, 1999). The sigma-1 receptor binding assay was carried out by incubing Jurkat cell membranes ([…] protein per tube) with [^3H](+)-pentazocine a selective sigma-1 radiotracer (15 nM) and a range of concentration of tested compounds, at 37° C. for 2 hours in 5 mM tris/HCl buffer (pH=7.4). The inhibition of [^3H](+)-pentazocine binding assay is mainly used to determine the inhibition constant (Ki) of potential sigma-1 receptor ligands. These assays are performed with a single concentration of [^3H](+)-pentazocine at a concentration near its KD and increasing concentrations of non-radioactive ligands.
Turning to `Cl.Cl.O=c1c(-c2ccccc2)ccnn1CC1CCN(Cc2cnc[nH]2)CC1` [cpd 16, 2-{[1-(1H-imidazol-5-ylmethyl)piperidin-4-yl]methyl}-4-phenyl-2,3-dihydropyridazin-3-one dihydro-chloride], the “sigma-1 receptor % inhibition 10 nM” value came out at 3.8%.

For the molecule `O=c1c(-c2ccccc2)ccnn1C1CCCN(Cc2ccccc2)CC1` (stereo not drawn) [cpd 6, 2-(1-benzylazepan-4-yl)-4-phenyl-2,3-dihydropyridazin-3-one hydrochloride], the inhibition at 0.01 µM is 81.4%.

For the molecule `O=c1c(-c2ccccc2)ccnn1CC1CCN(Cc2ccc(Cl)cc2)CC1` [cpd 12, 2-((1-(4-chlorobenzyl)piperidin-4-yl)methyl)-4-phenylpyridazin-3(2H)-one hydrochloride], testing at 0.01 µM gave an inhibition of 73.1%.

On to `O=c1c(-c2ccccc2)ccnn1CC1CCN(CC2CCCCC2)CC1` [cpd 13, 2-((1-(cyclohexylmethyl)piperidin-4-yl)methyl)-4-phenylpyridazin-3(2H)-one hydrochloride], for which the inhibition at 0.01 µM was found to be 59.3%.

In turn, `O=c1c(CCc2ccccc2)ccnn1C1CCN(Cc2ccccc2)CC1` [cpd 37, 2-(1-benzylpiperidin-4-yl)-4-(2-phenylethyl)-2,3-dihydropyridazin-3-one hydrochloride] returned an inhibition at 0.01 µM of 90%.

Turning to `O=c1cc(-c2ccccc2)cnn1C1CCN(Cc2ccccc2)CC1` [cpd 2, 2-(1-benzylpiperidin-4-yl)-5-phenylpyridazin-3(2H)-one hydrochloride], the inhibition at 0.01 µM is 86%.

As to `O=c1c(-c2ccccc2)ccnn1CC1CCN(CC(O)c2ccc(F)cc2)CC1` (stereo not drawn) [cpd 23, 2-((1-(2-(4-fluorophenyl)-2-hydroxyethyl)piperidin-4-yl)methyl)-4-phenylpyridazin-3(2H)-one hydrochloride], testing at 0.01 µM gave an inhibition of 1.3%.

Consider `O=c1c(N2CCCCC2)ccnn1C1CCN(Cc2ccccc2)CC1` [cpd 38, 2-(1-benzylpiperidin-4-yl)-4-(piperidin-1-yl)-2,3-dihydropyridazin-3-one hydrochloride], for which the inhibition at 0.01 µM came out at 52.3%.

Regarding `CC(C1CCN(Cc2ccccc2)CC1)n1nccc(-c2ccccc2)c1=O` (stereo not drawn) [cpd 28, 2-(1-(1-benzylpiperidin-4-yl)ethyl)-4-phenylpyridazin-3(2H)-one hydro chloride], testing at 0.01 µM gave an inhibition of 37%.

With `O=c1c(CCc2ccccc2)ccnn1CC1CCN(Cc2ccccc2)CC1` [cpd 36, 2-((1-benzylpiperidin-4-yl)methyl)-4-phenethylpyridazin-3(2H)-one], at 0.01 µM the inhibition was 44.2%.

`O=C(CN1CCC(Cn2nccc(-c3ccccc3)c2=O)CC1)c1ccc(F)cc1` [cpd 24, 2-((1-(2-(4-fluorophenyl)-2-oxoethyl)piperidin-4-yl)methyl)-4-phenylpyridazin-3(2H)-one hydrochloride] came in with an inhibition at 0.01 µM of 6.2%.

For the molecule `O=c1c(-c2ccccc2)ccnn1CC1CCN(CCc2ccccc2)CC1` [cpd 10, 2-((1-phenethylpiperidin-4-yl)methyl)-4-phenylpyridazin-3(2H)-one hydrochloride], the inhibition at 0.01 µM came to 29.2%.

`O=c1c(-c2ccccc2)ccnn1CC1CCN(CC(O)c2ccccc2)CC1` (stereo not drawn) [cpd 25, 2-((1-(2-hydroxy-2-phenylethyl)piperidin-4-yl)methyl)-4-phenylpyridazin-3(2H)-one hydrochloride] registered an inhibition at 0.01 µM of 15.3%.

The molecule `O=c1c(-c2ccccc2)ccnn1CC1CCN(CC2CCOCC2)CC1` [cpd 15, 4-phenyl-2-((1-((tetrahydro-2H-pyran-4-yl)methyl)piperidin-4-yl)methyl)pyridazin-3(2H)-one dihydrochloride] had an inhibition at 0.01 µM of 19.3%.

Staying with this assay, now noted: tested compound 100 nM, [3H](+)-pentazocine 15 nM, 37° C., 2 hours.
With `O=c1c(CCc2ccccc2)ccnn1C1CCN(Cc2ccccc2)CC1` [cpd 37, 2-(1-benzylpiperidin-4-yl)-4-(2-phenylethyl)-2,3-dihydropyridazin-3-one hydrochloride], 0.1 µM produced 100% inhibition.

For the molecule `Cl.O=c1c(-c2ccc(Cl)cc2)ccnn1C1CCN(Cc2ccccc2)CC1` [cpd 32], the “sigma-1 receptor % inhibition 100 nM” value stood at 91.1%.

Turning to `O=c1cc(-c2ccccc2)cnn1C1CCN(Cc2ccccc2)CC1` [cpd 2, 2-(1-benzylpiperidin-4-yl)-5-phenylpyridazin-3(2H)-one hydrochloride], 0.1 µM produced 90% inhibition.

`O=c1c(N2CCCCC2)ccnn1C1CCN(Cc2ccccc2)CC1` [cpd 38, 2-(1-benzylpiperidin-4-yl)-4-(piperidin-1-yl)-2,3-dihydropyridazin-3-one hydrochloride] registered an inhibition at 0.1 µM of 90%.
